Data published in US20160067209A1, “PTEROCARPAN COMPOUND OR PHARMACEUTICALLY ACCEPTABLE SALT THEREOF AND PHARMACEUTICAL COMPOSITION FOR PREVENTION OR TREATMENT OF METABOLIC DISEASE OR COMPLICATION THEREOF, OR FOR ANTIOXIDANT CONTAINING THE SAME AS AN ACTIVE INGREDIENT” (KOREA RESEARCH INSTITUTE OF BIOSCIENCE AND BIOTECHNOLOGY, priority 2010, published 2016).

How the values were obtained:
[1] = molecular target: T1, hACAT-1 (Homo sapiens, UniProt P35610); assay: hACAT inhibitory activity, microsome fraction of Hi5 cells, [1-14C] oleoyl-CoA substrate; assay type: biochemical; conditions: for inhibition at 100 µM: read-out: Inhibitory activity at 100 μM (%) hACAT1
T1 construct: made in house; host or cells: Hi5 insect cells (baculovirus; virus produced in sf9), microsome fraction
T1 sequence (P35610 1-550): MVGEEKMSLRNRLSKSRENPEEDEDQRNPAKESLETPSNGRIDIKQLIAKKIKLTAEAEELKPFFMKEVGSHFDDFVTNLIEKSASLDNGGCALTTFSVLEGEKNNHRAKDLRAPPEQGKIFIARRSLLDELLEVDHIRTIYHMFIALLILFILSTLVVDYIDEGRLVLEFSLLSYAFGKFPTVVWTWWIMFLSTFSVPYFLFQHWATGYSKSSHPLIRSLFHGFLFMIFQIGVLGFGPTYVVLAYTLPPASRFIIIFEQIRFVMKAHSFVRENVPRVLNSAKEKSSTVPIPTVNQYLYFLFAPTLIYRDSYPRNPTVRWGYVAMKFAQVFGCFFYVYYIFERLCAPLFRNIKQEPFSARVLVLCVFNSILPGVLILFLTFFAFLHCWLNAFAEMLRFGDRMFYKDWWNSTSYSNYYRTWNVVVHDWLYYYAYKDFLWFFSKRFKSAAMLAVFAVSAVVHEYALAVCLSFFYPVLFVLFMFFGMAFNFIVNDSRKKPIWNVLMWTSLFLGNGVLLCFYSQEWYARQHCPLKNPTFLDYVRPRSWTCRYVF
Description: (§1) cDNA of each hACAT-1 and hACAT-2 obtained by human liver cDNA library screening was inserted into baculovirus vector, which was then introduced into the insect cell sf9 to produce target virus. The recombinant virus of each hACAT-1 and hACAT-2 was separated by plaque purification and then amplified three times to increase titer of viral stock.
(§2) To separate microsome fractions from the cultured Hi5 cells over-expressing hACAT-1 and hACAT-2, centrifugation was performed at 500 rpm for 15 minutes. The collected cells were lysed by quick-freezing/quick-thawing in hypotonic buffer, followed by ultracentrifugation at 100,000 rpm for one hour. The obtained microsome fractions were suspended in hypotonic buffer to make the protein concentration to be 8 mg/ml, which was stored in −70° C. freezer until use.
(§3) Human ACAT (hACAT) activity was measured by the method of Brecher & Chan (P. Brecher and C. Chan, Biochem. Biophys. Acta, 1980, 617: 458) with slight modification using [1-^14C] oleoyl-CoA (56.0 ρCi/μmol; Amersham) as a substrate. 10 μl of each of the pterocarpan compounds represented by Formula 2-Formula 5 obtained in Example 1 in dimethylsulfoxide (DMSO) was mixed with 4.0 μl of the microsome solution obtained in step 1, 20.0 μl a of assay buffer (0.5 M KH2PO4, 10 mM DTT, pH 7.4; Sigma), 15.0 μl of bovine serum albumin (BSA, stock solution conc. 40 mg/ml; Sigma), 2.0 μl of cholesterol (stock solution conc. 20 mg/ml; Sigma), and 41.0 μl of distilled water, followed by pre-reaction at 37° C. for 15 minutes. In this assay, the negative control was used the DMSO alone, and the positive control was used a known ACAT inhibitor, oleic acid anilide.
(§4) Eight (8) μl of [1-^14C] oleoyl-CoA (0.05 μCi, final conc. 10.0 μM) was added to the above reaction mixture, followed by reaction at 37° C. for 30 minutes. The reaction was terminated by adding 1 ml of isopropanol:heptane mixed solution (4:1(v/v)). Six hundred (600) μl of heptane and 200 μl of 0.1 M KH2PO4 (pH 7.4) were added thereto and the reaction mixture was vortexed vigorously and centrifuged at 300 rpm for 5 minutes. The obtained upper phase (100 μl) was added in a scintillation vial, to which 4 ml of scintillation solution (Lipoluma, Lumac Co.) were added. Radioactivity of the upper phase was measured by 1450 Microbeta liquid scintillation counter (Wallacoy).
(§5) hACAT activity was calculated based on the radioactivity, the amount of synthesized cholesteryl oleated, measured above and expressed as a defined unit, pico mole per 1 mg of protein for 1 minute (pico mole/minute/mg protein).

[2] = molecular target: T2, hACAT-2 (Homo sapiens, UniProt O75908); assay: as above; assay type: biochemical; conditions: read-out: Inhibitory activity at 100 μM (%) hACAT2
T2 construct: made in house; host or cells: Hi5 insect cells (baculovirus; virus produced in sf9), microsome fraction
T2 sequence (O75908 1-522): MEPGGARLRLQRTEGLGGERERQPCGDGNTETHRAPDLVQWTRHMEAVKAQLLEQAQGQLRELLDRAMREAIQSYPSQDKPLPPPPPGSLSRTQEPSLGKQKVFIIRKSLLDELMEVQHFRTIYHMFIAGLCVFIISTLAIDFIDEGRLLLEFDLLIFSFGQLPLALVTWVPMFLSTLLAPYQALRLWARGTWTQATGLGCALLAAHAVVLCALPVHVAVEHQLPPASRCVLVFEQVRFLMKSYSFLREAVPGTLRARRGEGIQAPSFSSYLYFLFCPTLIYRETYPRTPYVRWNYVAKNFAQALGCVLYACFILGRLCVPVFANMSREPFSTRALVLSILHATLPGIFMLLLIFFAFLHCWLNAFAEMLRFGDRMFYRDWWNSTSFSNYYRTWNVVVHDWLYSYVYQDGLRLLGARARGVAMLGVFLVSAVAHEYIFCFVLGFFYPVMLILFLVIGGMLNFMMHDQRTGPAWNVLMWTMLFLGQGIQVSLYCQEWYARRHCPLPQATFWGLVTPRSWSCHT
Description: as §1, §2, §3, §4, §5

[3] = tested on: LDL; assay: LDL anti-oxidative activity, Cu-mediated LDL-oxidation, TBA method; assay type: biochemical, human; conditions: CuSO4, 37° C., 4 hours, MDA by TBA; read-out: LDL-oxidation inhibitory activity (IC50)
Description: Cu^2+ has been known to induce LDL-oxidation (Cu-mediated LDL-oxidation). In this invention, dialdehyde, the oxide of unsaturated fatty acid, generated during LDL-oxidation was measured by TBA (thiobarbituric acid) method to investigate the anti-oxidative activity of the pterocarpan compound isolated from soybean leaves (Packer, L. Ed. (1994) Methods in Enzymology Vol. 234, Oxygen radicals in biological systems Part D. Academic press, San Diego).
Three hundred (300) ml of human plasma were centrifuged at 100,000×g for 24 hours to remove floating VLDL/chylomicron layer in upper part. The specific gravity of the remaining solution was adjusted to […], followed by re-centrifugation at 100,000×g for 24 hours, and 25 ml of the floating LDL (1.5-2.5 mg protein/ml) in upper layer was separated.
Twenty (20) μl of the separated LDL (protein conc. 50-100 μg/ml) was mixed with 210 μl of 10 mM PBS, to which 10 μl of each of the pterocarpan compounds represented by Formula 2-Formula 5 of the present invention was added respectively.
The pterocarpan compounds were dissolved in DMSO, which were further diluted properly for the experiment. In this assay, the negative control was used the DMSO only, while the positive control was used a known LDL-antioxidant, probucol.
Ten (10) μl of 0.25 mM CuSO4 was added to the above reaction mixture, followed by reaction at 37° C. for 4 hours. The reaction was terminated by adding 1 ml of 20% trichloroacetic acid (TCA) solution. One (1) ml of 0.67% thiobarbituric acid (TBA) dissolved in 0.05 N NaOH solution was added thereto, followed by stirring for 10 seconds. Then, the reaction mixture was heated at 95° C. for 5 minutes to induce color development. The solution was cooled down with iced water and centrifuged at 3,000 rpm for 5 minutes to separate supernatant. The amount of malondialdehyde (MDA) generated by the color development was calculated by measuring optical density at 540 nm (OD540) with UV-VIS Spectrophotometer.
PBS standard solution containing 0-10 nmol MDA was prepared by […] with tetramethoxypropane malonaldehyde bis (dimethylacetal) stock solution. Color development was induced with the standard solution, followed by measuring OD540. The generated MDA was quantified by using the standard curve in experiments with the pterocarpan compound of the present invention.

inhibition at 100 µM [1]	inhibition at 100 µM [2]	IC50 [3]	Inhibitory activity at 100 μM (%) hACAT1 ([1]; 100 µM)	Structure (SMILES)
29.7%	22.9%	43 µM	–	C=C(C)c1cc2cc3c(cc2o1)OC[C@@]1(O)c2ccc(O)cc2O[C@@H]31 [Formula 2, (6aS,11aS)-2-(pro-1-pene-2-yl)-6a,11a-dihydro-6H-benzofuro[3,2-c]furo[3,2-g]chromene-6a,9-diol]
35.2%	20.3%	51.8 µM	–	COc1ccc2c(c1)O[C@H]1c3c(cc(O)c(CC=C(C)C)c3OC)OC[C@@]21O [Formula 3]
14.9%	7.9%	4.5 µM	–	COc1cc(O)cc2oc(=O)c3c4ccc(O)cc4oc3c12 [Formula 4, isotrifoliol]
85.8%	67.4%	1 µM	85.9%	CC(C)=CCc1c(O)ccc2c1oc(=O)c1c3ccc(O)cc3oc21 [Formula 5, phaseol]
